Reference: patent publication US9586963B2 (GENFIT, priority 2011, dated 2017)
pEC50: −log10 of the molar value. Counter-ions that a name gives are not always drawn.

Biological target: T1, Rev-Erb alpha (Homo sapiens, UniProt P20393)
T1 sequence (P20393 284-614 limits assumed): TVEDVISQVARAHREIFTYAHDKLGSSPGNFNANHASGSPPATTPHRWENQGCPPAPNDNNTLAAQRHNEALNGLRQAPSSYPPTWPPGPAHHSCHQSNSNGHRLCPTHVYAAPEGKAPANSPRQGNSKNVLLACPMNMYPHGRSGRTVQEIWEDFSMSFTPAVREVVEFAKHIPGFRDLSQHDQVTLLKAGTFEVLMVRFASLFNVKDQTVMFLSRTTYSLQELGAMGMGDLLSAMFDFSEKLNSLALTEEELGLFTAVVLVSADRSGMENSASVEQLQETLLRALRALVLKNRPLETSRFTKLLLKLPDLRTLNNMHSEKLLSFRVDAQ
Test: M2H (mammalian two-hybrid) cellular activation assay of Rev-Erb alpha
Format: cell-based
Details: M2H assay, HEK293 cells; for pEC50: Gal4-Rev-Erb alpha / VP16-NCoR, luciferase reporter; for Emax: relative to DMSO, at the tested dose, read-out: TOP activation
Experimental: In this system, Rev-Erb alpha or Rev-Erb beta is expressed as a fusion to the Gal4 DNA-binding domain and the cofactor NCoR is expressed as a fusion to the activation domain of the Herpes Simplex Virus tegument protein VP16. These fusion proteins were included in plasmids at a concentration of 1 μg/μL. The pBS-SK+ vector was added to the preparation to adjust the DNA quantity to a fixed value for each condition.
The transfection mix (Jet-PEI protocol, Polyplus transfection) comprised: • 3 mL of Jet PEI Mix (180 μL Jet-Pei and NaCl at 150 mM) and • 3 mL of the DNA Mix or of the DNA Mix control (wherein the Gal4-Rev-Erb alpha plasmid was replaced by a pGal4phi plasmid).
DNA Mix comprised 1.2 mL of DNA and 1.8 mL of NaCl at 150 mM with, in a T225 flask: • 90 ng of Gal4-Rev-Erb alpha, or 90 ng of Gal4-Rev-Erb beta, • 4500 ng of VP16-NCoR, • 27000 ng of Gal4-RE and • 13410 ng of pBS-SK+. Cells
HEK293 cells were cultured in DMEM (Invitrogen 41965) comprising 10% FBS, P/S, 1% glutamine, 1% pyruvate (Invitrogen 11360) and 1% amino acids (Invitrogen 11140). Cells were then batch co-transfected with plasmid vectors (described in the table above) using as Jet-PEI as reagent (Polyplus) following the protocol specified below.
The 6 mL-transfection mix was transferred in a T225 flask. HEK293 cells were then added at a concentration of 12 Millions of cells for 54 mL of medium (DMEM comprising 10% FBS and 1% P/S). Cells incubated over-night at 37° C. and under 5% CO2.
This cell-based assay is performed using 384-well Greiner white plates (Reference 781080). After the incubation, cells were rinsed with PBS, trypsinized, centrifuged and resuspended in free-serum DMEM without phenol red (Invitrogen 31053). Cells were counted and adjusted to 0.5 Million per mL and plated at a concentration of 10,000 cells in 20 μL per well. They were incubated a minimum of 4 hours at 37° C. under 5% CO2. Cells were treated with 20 μL of the compound to analyze (concentration of 2× diluted in DMEM without FBS containing a maximum of 1% DMSO) and incubated over-night (18 hours, 37° C. and 5% CO2). Each compound has been tested at 6 different concentrations to depict a dose-effect allowing the measure of biochemical parameters such as EC50 and TOP activation (%).
Cells were incubated 30 minutes with 40 μL/well of Steady Glow (Promega) and luminescence was read with TECAN Genios Pro (100 ms/w). Four experiments were carried out for each compound.
Each compound has been tested at 6 different concentrations to depict a dose-effect allowing the measure of biochemical parameters such as EC50 and TOP activation (%).
The mammalian two-hybrid system (M2H) assay consists herein in studying the ability of compounds according to the invention to activate Rev-Erbalpha in cells and thus modulate the interaction with its corepressor. The interaction of the two proteins is assessed with the help of the Luciferase reporter gene. HEK293 cells were transfected with two gene constructions: Gal4-RE VP16-NCoR and Gal4-Rev-Erbalpha or with Gal4-RE, sVP16-NCoR and Gal4-Rev-Erb beta.
The ability of compounds according to the invention of activating Rev-Erbalpha alpha or Rev-Erb beta was assessed in the described cell-based assay. EC50 and TOP activation (%) were measured.

Structure (SMILES) | pEC50 | Emax [%]
COc1ccc(-c2ccc(C(F)(F)F)cc2Oc2ccc3nnc(Cl)n3n2)cn1 [Cpd.4-81, 3-chloro-6-(2-(6-methoxypyridin-3-yl)-5-(trifluoromethyl)phenoxy)-[1,2,4]triazolo[4,3-b]pyridazine] | 6.00 to 7.00 | 
COc1cncc(-c2ccc(C(F)(F)F)cc2Oc2ccc3nnc(Cl)n3n2)c1 [Cpd.4-82, 3-chloro-6-(2-(5-methoxypyridin-3-yl)-5-(trifluoromethyl)phenoxy)-[1,2,4]triazolo[4,3-b]pyridazine] | 5.22 to 6.00 | 
CCOc1ccc(-c2ccc(C(F)(F)F)cc2Oc2ccc3nnc(Cl)n3n2)cn1 [Cpd.4-84, 3-chloro-6-(2-(6-ethoxypyridin-3-yl)-5-(trifluoromethyl)phenoxy)-[1,2,4]triazolo[4,3-b]pyridazine] | 5.22 to 6.00 | 
Cn1cc(-c2ccc(C(F)(F)F)cc2Oc2ccc3nnc(Cl)n3n2)ccc1=O [Cpd.4-86, 5-(2-(3-chloro-[1,2,4]triazolo[4,3-b]pyridazin-6-yloxy)-4-(trifluoromethyl)phenyl)-1-methylpyridin-2(1H)-one] | < 5.22 | > 130
Fc1ccc(-c2ccc(C(F)(F)F)cc2Oc2ccc3nnc(Cl)n3n2)cn1 [Cpd.4-87, 3-chloro-6-(2-(6-fluoropyridin-3-yl)-5-(trifluoromethyl)phenoxy)-[1,2,4]triazolo[4,3-b]pyridazine] | 5.22 to 6.00 | 
CCCn1cc(-c2ccc(C(F)(F)F)cc2Oc2ccc3nnc(Cl)n3n2)ccc1=O [Cpd.4-88, 5-(2-(3-chloro-[1,2,4]triazolo[4,3-b]pyridazin-6-yloxy)-4-(trifluoromethyl)phenyl)-1-propylpyridin-2(1H)-one] | < 5.22 | > 130
CCCCn1cc(-c2ccc(C(F)(F)F)cc2Oc2ccc3nnc(Cl)n3n2)ccc1=O [Cpd.4-89, 1-butyl-5-(2-(3-chloro-[1,2,4]triazolo[4,3-b]pyridazin-6-yloxy)-4-(trifluoromethyl)phenyl)pyridin-2(1H)-one] | < 5.22 | > 130
CCCOc1ccc(-c2ccc(C(F)(F)F)cc2Oc2ccc3nnc(Cl)n3n2)cn1 [Cpd.4-92, 3-chloro-6-(2-(6-propoxypyridin-3-yl)-5-(trifluoromethyl)phenoxy)-[1,2,4]triazolo[4,3-b]pyridazine hydrochloride] | < 5.22 | > 130
Oc1cncc(-c2ccc(C(F)(F)F)cc2Oc2ccc3nnc(Cl)n3n2)c1 [Cpd.4-96, 5-(2-(3-chloro-[1,2,4]triazolo[4,3-b]pyridazin-6-yloxy)-4-(trifluoromethyl)phenyl)pyridin-3-ol] | < 5.22 | > 130
FC(F)(F)c1ccc(-c2ccccn2)c(Oc2ccc3nnc(Cl)n3n2)c1 [Cpd.4-97, 3-chloro-6-(2-(pyridin-2-yl)-5-(trifluoromethyl)phenoxy)-[1,2,4]triazolo[4,3-b]pyridazine hydrochloride] | 5.22 to 6.00 | 
Clc1nnc2ccc(Oc3ccccc3-c3cccnc3)nn12 [Cpd.4-98, 3-chloro-6-(2-(pyridin-3-yl)phenoxy)-[1,2,4]triazolo[4,3-b]pyridazine hydrochloride] | < 5.22 | > 130
COc1ccncc1-c1ccc(C(F)(F)F)cc1Oc1ccc2nnc(Cl)n2n1 [Cpd.4-100, 3-chloro-6-(2-(4-methoxypyridin-3-yl)-5-(trifluoromethyl)phenoxy)-[1,2,4]triazolo[4,3-b]pyridazine] | 5.22 to 6.00 | 
Clc1nnc2ccc(Oc3ccccc3-c3cscn3)nn12 [Cpd.4-103, 3-chloro-6-(2-(thiazol-4-yl)phenoxy)-[1,2,4]triazolo[4,3-b]pyridazine] | < 5.22 | > 130

Second part, the molecule after the results:

pEC50 | Emax [%] | Structure (SMILES)
< 5.22 | > 130 | Clc1nnc2ccc(Oc3ccccc3-c3nccs3)nn12 [Cpd.4-104, 3-chloro-6-(2-(thiazol-2-yl)phenoxy)-[1,2,4]triazolo[4,3-b]pyridazine]
5.22 to 6.00 |  | FC(F)(F)c1ccc(-c2nccs2)c(Oc2ccc3nnc(Cl)n3n2)c1 [Cpd.4-105, 3-chloro-6-(2-(thiazol-2-yl)-5-(trifluoromethyl)phenoxy)-[1,2,4]triazolo[4,3-b]pyridazine]
5.22 to 6.00 |  | FC(F)(F)c1ccc(-c2cscn2)c(Oc2ccc3nnc(Cl)n3n2)c1 [Cpd.4-106, 3-chloro-6-(2-(thiazol-4-yl)-5-(trifluoromethyl)phenoxy)-[1,2,4]triazolo[4,3-b]pyridazine]
< 5.22 | > 130 | Fc1ccc(Oc2ccc3nnc(Cl)n3n2)c(-c2cccnc2)c1 [Cpd.4-107, 3-chloro-6-(4-fluoro-2-(pyridin-3-yl)phenoxy)-[1,2,4]triazolo[4,3-b]pyridazine]
6.00 to 7.00 |  | Clc1nnc2ccc(Oc3ccccc3-c3ccsc3)nn12 [Cpd.4-108, 3-chloro-6-(2-(thiophen-3-yl)phenoxy)-[1,2,4]triazolo[4,3-b]pyridazine]
< 5.22 | > 130 | Cc1noc(C)c1-c1ccccc1Oc1ccc2nnc(Cl)n2n1 [Cpd.4-109, 3-chloro-6-(2-(3,5-dimethylisoxazol-4-yl)phenoxy)-[1,2,4]triazolo[4,3-b]pyridazine]
6.00 to 7.00 |  | Clc1nnc2ccc(Oc3ccccc3-c3ccc4scnc4c3)nn12 [Cpd.4-110, 6-(2-(benzo[d]thiazol-5-yl)phenoxy)-3-chloro-[1,2,4]triazolo[4,3-b]pyridazine]
6.00 to 7.00 |  | COc1ccccc1-c1ccccc1Oc1ccc2nnc(Cl)n2n1 [Cpd.4-111, 3-chloro-6-(2′-methoxybiphenyl-2-yloxy)-[1,2,4]triazolo[4,3-b]pyridazine]
> 7.00 |  | COc1ccc(-c2cccc(F)c2)c(Oc2ccc3nnc(Cl)n3n2)c1 [Cpd.4-112, 3-chloro-6-[(3′-fluoro-4-methoxybiphenyl-2-yl)oxy]-[1,2,4]triazolo[4,3-b]pyridazine]
6.00 to 7.00 |  | Clc1ccc(Oc2ccc(Cl)cc2Oc2ccc3nnc(Cl)n3n2)c(Cl)c1 [Cpd.4-114, 3-chloro-6-[5-chloro-2-(2,4-dichloro-phenoxy)-phenoxy]-[1,2,4]triazolo[4,3-b]pyridazine]
6.00 to 7.00 |  | Fc1ccc(Oc2ccc3nnc(Cl)n3n2)c(-c2ccccc2F)c1 [Cpd.4-121, 3-chloro-6-(2′,5-difluorobiphenyl-2-yloxy)-[1,2,4]triazolo[4,3-b]pyridazine]
6.00 to 7.00 |  | Cc1ncccc1-c1ccc(C(F)(F)F)cc1Oc1ccc2nnc(Cl)n2n1 [Cpd.4-123, 3-chloro-6-(2-(2-methylpyridin-3-yl)-5-(trifluoromethyl)phenoxy)-[1,2,4]triazolo[4,3-b]pyridazine]
< 5.22 | > 130 | CN1CCN(Cc2ccc(C(F)(F)F)cc2Oc2ccc3nnc(Cl)n3n2)CC1 [Cpd.4-124, 3-chloro-6-(2-((4-methylpiperazin-1-yl)methyl)-5-(trifluoromethyl)phenoxy)-[1,2,4]triazolo[4,3-b]pyridazine]
5.22 to 6.00 |  | COc1ncc(-c2ccc(C(F)(F)F)cc2Oc2ccc3nnc(Cl)n3n2)cn1 [Cpd.4-127, 3-chloro-6-((2-(2-methoxypyrimidin-5-yl))-5-(trifluoromethyl)phenoxy)-[1,2,4]triazolo[4,3-b]pyridazine]
5.22 to 6.00 |  | CC(C)c1ncncc1-c1ccc(C(F)(F)F)cc1Oc1ccc2nnc(Cl)n2n1 [Cpd.4-128, 3-chloro-6-((2-(4-isopropylpyrimidin-5-yl))-5-(trifluoromethyl)phenoxy)-[1,2,4]triazolo[4,3-b]pyridazine]
